From patent US5972883A, “Method for the treatment of neurodegenerative diseases by administering VIP, an analogue, fragment or a conjugate thereof” (Yeda Research and Development Co. Ltd., priority 1993, dated 1999) come the findings set out here.

In test [1] the test system is electrically blocked neurons (mouse spinal cord neurons). It counts as cell-based.
In test [2] the test system is Neurons from rat cerebral cortex treated with β-amyloid peptide fragment 25-35. Description: Survival of neurons treated with fragment 25-35 of β-amyloid peptide. The following applies: 25 μM fragment alone; 150 without fragment.
Test [3] concerns untreated neurons (cerebral cortical cultures). Put plainly: Survival of untreated neurons (naturally occurring death), cerebral cortical cultures. The class given is cell-based. The following applies: untreated rat cerebral cortical cultures. How it is done: (a) Cerebral cortical cultures were prepared by a slight modification of the techniques described by Forsythe and Westbrook, (a. Physiol. Lond. 396:515 (1988)), in which cerebral cortex was used instead of hippocampus and newborn rats were utilized instead of E16 mice. After nine days growth in vitro, the cultures were given a complete change of medium and treated with serial dilutions of either peptide 1, 2 or 6 in order to determine whether these peptides were effective in protecting neurons from naturally occurring death. Cerebral cortical cells were counted as above, however, only 40 fields per plate were counted comprising an area of 20 mm^2.
(a) Cells were prepared as described in Example 6. After nine days growth in vitro, the cultures were given a complete change of medium and treated with serial dilutions of peptide 5 or of peptide 3 in the presence and in the absence of 10^-8 M of a VIP antagonist described in detail in U.S. Pat. No. 5,217,953. One treatment was given at the beginning of a five day test period. Cell counts were performed on 100 fields, with a total area of 50 mm^2. Neurons were counted without knowledge of treatment.

Consider `CCCC[C@H](NC(=O)[C@H](CCC(N)=O)NC(=O)[C@H](CCCCN)NC(=O)[C@H](CCCNC(=N)N)NC(=O)[C@H](CC(C)C)NC(=O)[C@H](CCCNC(=N)N)NC(=O)[C@@H](NC(=O)[C@H](Cc1ccc(O)cc1)NC(=O)[C@H](CC(N)=O)NC(=O)[C@H](CC(=O)O)NC(=O)[C@@H](NC(=O)[C@H](Cc1ccccc1)NC(=O)[C@@H](NC(=O)[C@H](C)NC(=O)[C@H](CC(=O)O)NC(=O)[C@H](CO)NC(=O)[C@@H](N)Cc1c[nH]cn1)C(C)C)[C@@H](C)O)[C@@H](C)O)C(=O)N[C@@H](C)C(=O)N[C@H](C(=O)N[C@@H](CCCCN)C(=O)N[C@@H](CCCCN)C(=O)N[C@@H](Cc1ccc(O)cc1)C(=O)N[C@@H](CC(C)C)C(=O)N[C@@H](CC(N)=O)C(=O)N[C@@H](CO)C(=O)N[C@H](C(=O)N[C@@H](CC(C)C)C(=O)N[C@@H](CC(N)=O)C(N)=O)[C@@H](C)CC)C(C)C` [Nle^17 -VIP, Norleucine^17 -VIP], for which the “potency relative to native VIP in protecting electrically blocked cells from death” value in test [1] was “about 10 fold”.
On to “fragment 25-35 of β-amyloid peptide: β-amyloid peptide fragment comprising amino acids in positions 25 to 35, toxic to neurons in culture (GSNKGAIIGLM; Amyloid-beta protein 42; UniProt P05067 696-706, looked up, fragment) [reference compound]”, for which, in test [2], the “number of living neurons per tested area” value amounted to 42 neurons.
With “St-His-Ser-Asp-Gly-Ee-Phe-Thr-Asp-Ser-Tyr-Ser-Arg-Tyr-Arg-amide (stearyl-HSDGIFTDSYSRYR-NH2; not fully specified (residue 5); printed as St-His-Ser-Asp-Gly-Ee-Phe-Thr-Asp-Ser-Tyr-Ser-Arg-Tyr-Arg-amide) [peptide 1]”, the “concentrations protecting cells from naturally occurring death” value in test [3] is recorded as “above 10^-8 M”.
